Test results published in PubChem BioAssay (NCI).
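Five compound concentrations were applied to cells in 96-well plates for 48 hours; endpoints were derived by simple linear interpolation of the resulting dose-response curve. TGI: total growth inhibition.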

How the values were obtained:
Assay in all cases: NCI-60 cell line screen, 48 h
[1] = tested on: RPMI-8226 leukemia
[2] = tested on: KM12 colon
[3] = tested on: DMS 273 small cell lung
[4] = tested on: OVCAR-4 ovarian
[5] = tested on: HCT-116 colon
[6] = tested on: A549 NSCLC
[7] = tested on: M19-MEL melanoma
[8] = tested on: SN12C renal

Structure (SMILES): C=Nc1ccc([N+](=O)[O-])cc1
- TGI [1]: > 31.6 µM
- TGI [2]: > 100 µM
- TGI [3]: > 100 µM
- TGI [4]: > 100 µM
- TGI [5]: > 100 µM
- TGI [6]: > 100 µM
- TGI [7]: > 100 µM
- TGI [8]: > 100 µM
